# Experimental data taken from patent US11180470B2, “Herbicidal pyrimidine compounds” (BASF SE, priority 2016, dated 2021).
# Tests used:
# AMARE = experiment: greenhouse experiment, post-emergence treatment; type: in vivo, Amaranthus retroflexus; details: post-emergence method, scale from 0 to 100
# From the text: (§1) The culture containers used were plastic flowerpots containing loamy sand with approximately 3.0% of humus as the substrate. The seeds of the test plants were sown separately for each species.
# (§2) For the post-emergence treatment, the test plants were first grown to a height of 3 to 15 cm, depending on the plant habit, and only then treated with the active ingredients which had been suspended or emulsified in water. For this purpose, the test plants were either sown directly and grown in the same containers, or they were first grown separately as seedlings and transplanted into the test containers a few days prior to treatment.
# (§3) Depending on the species, the plants were kept at 10-25° C. or 20-35° C., respectively.
# (§4) The test period extended over 2 to 4 weeks. During this time, the plants were tended, and their response to the individual treatments was evaluated.
# (§5) Evaluation was carried out using a scale from 0 to 100. 100 means no emergence of the plants, or complete destruction of at least the aerial moieties, and 0 means no damage, or normal course of growth. A good herbicidal activity is given at values of at least 70 and a very good herbicidal activity is given at values of at least 85.
# (§6) The plants used in the greenhouse experiments were of the following species: […]
# AVEFA = experiment: greenhouse experiment, post-emergence treatment; type: in vivo, Avena fatua; details: post-emergence method, scale from 0 to 100
# From the text: as §1, §2, §3, §4, §5, §6
# ECHCG [1] = experiment: greenhouse experiment, post-emergence treatment; type: in vivo, Echinocloa crus-galli; details: post-emergence method, scale from 0 to 100
# Method: The seeds of the test plants were sown separately for each species. […] For this purpose, the test plants were either sown directly and grown in the same containers, or they were first grown separately as seedlings and transplanted into the test containers a few days prior to treatment. Depending on the species, the plants were kept at 10-25° C. or 20-35° C., respectively. The test period extended over 2 to 4 weeks. During this time, the plants were tended, and their response to the individual treatments was evaluated. Evaluation was carried out using a scale from 0 to 100. 100 means no emergence of the plants, or complete destruction of at least the aerial moieties, and 0 means no damage, or normal course of growth. A good herbicidal activity is given at values of at least 70 and a very good herbicidal activity is given at values of at least 85. The plants used in the greenhouse experiments were of the following species: [table]
# APESV = experiment: greenhouse experiment, pre-emergence treatment; type: in vivo, Apera spica-venti; details: pre-emergence method, scale from 0 to 100
# From the text: (§7) The seeds of the test plants were sown separately for each species. For the pre-emergence treatment, the active ingredients, which had been suspended or emulsified in water, were applied directly after sowing by means of finely distributing nozzles. The containers were irrigated gently to promote germination and growth and subsequently covered with transparent plastic hoods until the plants had rooted. This cover caused uniform germination of the test plants, unless this had been impaired by the active ingredients. Depending on the species, the plants were kept at 10-25° C. or 20-35° C., respectively. The test period extended over 2 to 4 weeks. During this time, the plants were tended, and their response to the individual treatments was evaluated. Evaluation was carried out using a scale from 0 to 100. 100 means no emergence of the plants, or complete destruction of at least the aerial moieties, and 0 means no damage, or normal course of growth. A good herbicidal activity is given at values of at least 70 and a very good herbicidal activity is given at values of at least 85. The plants used in the greenhouse experiments were of the following species: [table]
# ECHCG [2] = experiment: greenhouse experiment, pre-emergence treatment; type: in vivo, Echinocloa crus-galli; details: pre-emergence method, scale from 0 to 100
# From the text: as §7
# ALOMY = experiment: greenhouse experiment, post-emergence treatment; type: in vivo, Alopecurus myosuroides; details: post-emergence method, scale from 0 to 100
# From the text: as §1, §2, §3, §4, §5, §6
# SETVI = experiment: greenhouse experiment, post-emergence treatment; type: in vivo, Setaria viridis; details: post-emergence method, application rate 2000 g/ha, scale from 0 to 100
# From the text: as §1, §2, §3, §4, §5, §6
SMILES,herbicidal activity against AMARE (AMARE; application rate 2000 g/ha),herbicidal activity against AVEFA (AVEFA; application rate 2000 g/ha),herbicidal activity against ECHCG (ECHCG [1]; application rate 2000 g/ha),herbicidal activity against APESV (APESV; application rate 2000 g/ha),herbicidal activity against ECHCG (ECHCG [2]; application rate 2000 g/ha),other results
COC(=O)c1nc(C2CC2)ncc1-c1cccnc1Br [Example 18],very good (a very good herbicidal activity is given at values of at least 85),very good (a very good herbicidal activity is given at values of at least 85),very good (a very good herbicidal activity is given at values of at least 85),very good (a very good herbicidal activity is given at values of at least 85),very good (a very good herbicidal activity is given at values of at least 85),
COC(=O)c1nc(C2CC2)ncc1-c1cnccc1Br [Example 32],very good (a very good herbicidal activity is given at values of at least 85),,,very good (a very good herbicidal activity is given at values of at least 85),very good (a very good herbicidal activity is given at values of at least 85),
O=C(O)c1nc(C2CC2)ncc1-c1ccncc1Br [Example 38],very good (a very good herbicidal activity is given at values of at least 85),very good (a very good herbicidal activity is given at values of at least 85),,very good (a very good herbicidal activity is given at values of at least 85),very good (a very good herbicidal activity is given at values of at least 85),herbicidal activity against ALOMY (ALOMY; application rate 2000 g/ha): very good (a very good herbicidal activity is given at values of at least 85)
COC(=O)c1nc(OC)ncc1-c1ncccc1F [Example 46],good (A good herbicidal activity is given at values of at least 70),,,,,
CCc1ncc(-c2cccnc2Br)c(C(=O)O)n1 [Example 48],,,,,,herbicidal activity against SETVI (SETVI): very good (a very good herbicidal activity is given at values of at least 85)
CCc1ncc(-c2ncc(F)cc2Br)c(C(=O)O)n1 [Example 54],,,,,,herbicidal activity against AMARE (AMARE; application rate 1000 g/ha): very good (a very good herbicidal activity is given at values of at least 85); herbicidal activity against ECHCG (ECHCG [1]; application rate 1000 g/ha): very good (a very good herbicidal activity is given at values of at least 85)
COC(=O)c1nc(C2CC2)ncc1-c1ncc(F)cc1Br [Example 21],,very good (a very good herbicidal activity is given at values of at least 85),very good (a very good herbicidal activity is given at values of at least 85),very good (a very good herbicidal activity is given at values of at least 85),very good (a very good herbicidal activity is given at values of at least 85),herbicidal activity against ALOMY (ALOMY; application rate 2000 g/ha): very good (a very good herbicidal activity is given at values of at least 85)
O=C(O)c1nc(C2CC2)ncc1-c1ncc(F)cc1Br [Example 24],very good (a very good herbicidal activity is given at values of at least 85),very good (a very good herbicidal activity is given at values of at least 85),very good (a very good herbicidal activity is given at values of at least 85),very good (a very good herbicidal activity is given at values of at least 85),very good (a very good herbicidal activity is given at values of at least 85),
CCc1ncc(-c2ncccc2Br)c(C(=O)O)n1 [Example 49],,,,,very good (a very good herbicidal activity is given at values of at least 85),herbicidal activity against SETVI (SETVI): very good (a very good herbicidal activity is given at values of at least 85)
COC(=O)c1nc(C2CC2)ncc1-c1ncccc1Cl [Example 16],,,,,,herbicidal activity against ALOMY (ALOMY; application rate 1000 g/ha): very good (a very good herbicidal activity is given at values of at least 85); herbicidal activity against AVEFA (AVEFA; application rate 1000 g/ha): good (A good herbicidal activity is given at values of at least 70); herbicidal activity against ECHCG (ECHCG [1]; application rate 1000 g/ha): very good (a very good herbicidal activity is given at values of at least 85); herbicidal activity against APESV (APESV; application rate 1000 g/ha): good (A good herbicidal activity is given at values of at least 70); herbicidal activity against ECHCG (ECHCG [2]; application rate 1000 g/ha): good (A good herbicidal activity is given at values of at least 70)
O=Cc1ccoc1-c1cnc(C2CC2)nc1C(=O)O [Example 40],very good (a very good herbicidal activity is given at values of at least 85),,,,,
O=C(O)c1nc(C2CC2)ncc1-c1cc(C(F)(F)F)ncc1Cl [Example 64],,very good (a very good herbicidal activity is given at values of at least 85),good (A good herbicidal activity is given at values of at least 70),very good (a very good herbicidal activity is given at values of at least 85),very good (a very good herbicidal activity is given at values of at least 85),herbicidal activity against ALOMY (ALOMY; application rate 2000 g/ha): very good (a very good herbicidal activity is given at values of at least 85)
COC(=O)c1nc(C2CC2)ncc1-c1occc1C(F)F [Example 17],very good (a very good herbicidal activity is given at values of at least 85),,,,,
O=C(O)c1nc(C2CC2)ncc1-c1ncccc1I [Example 39],,very good (a very good herbicidal activity is given at values of at least 85),good (A good herbicidal activity is given at values of at least 70),very good (a very good herbicidal activity is given at values of at least 85),very good (a very good herbicidal activity is given at values of at least 85),herbicidal activity against ALOMY (ALOMY; application rate 2000 g/ha): good (A good herbicidal activity is given at values of at least 70)
Cc1ccsc1-c1cnc(C2CC2)nc1C(=O)O [Example 3],very good (a very good herbicidal activity is given at values of at least 85),,very good (a very good herbicidal activity is given at values of at least 85),very good (a very good herbicidal activity is given at values of at least 85),very good (a very good herbicidal activity is given at values of at least 85),
O=C(O)c1nc(C2CC2)ncc1-c1ncc(F)cc1Cl [Example 42],,very good (a very good herbicidal activity is given at values of at least 85),very good (a very good herbicidal activity is given at values of at least 85),very good (a very good herbicidal activity is given at values of at least 85),very good (a very good herbicidal activity is given at values of at least 85),herbicidal activity against ALOMY (ALOMY; application rate 2000 g/ha): very good (a very good herbicidal activity is given at values of at least 85)
COC(=O)c1nc(OC)ncc1-c1ncc(F)cc1F [Example 53],,,,,,herbicidal activity against SETVI (SETVI): good (A good herbicidal activity is given at values of at least 70)
